Experimental data published in paper PMC6145176 (Bioorganic & medicinal chemistry, 2017).
Like-named read-outs stand apart in the source and are kept apart here. Marks after values point to notes of the source that are not given here.

Experiments:
HIV-1Ba-L = assay: MAGI-CCR5 antiviral assay; type: cell-based; conditions: for IC50: concentration that reduces viral replication by 50%; for IC90: read-out: MAGI-CCR5 IC90, concentration that reduces viral replication by 90%
MAGI-CCR5 cells = assay: MAGI-CCR5 parallel cytotoxicity testing; type: cell-based; conditions: for TC50 (A17 row) / TC50 (NL4-3 row): MAGI-CCR5 cells; for TC50 (A17 row): printed in the A17 line of Table 10; for TC50 (NL4-3 row): printed in the NL4-3 line of Tables 7 and 10; for MAGI-CCR5 TC50: uninfected MAGI-CCR5 cells, 48 h, MTS, concentration that reduces cell viability by 50%
PBMCs = assay: PBMC cytotoxicity; type: cell-based, human; conditions: six days, MTS, concentration that reduces cell viability by 50%
HIV wildtype (NL4-3) = assay: MAGI-CCR5 antiviral assay, HIV wildtype; type: cell-based; conditions: HIV wildtype (NL4-3) in MAGI-CCR5 cells; for IC50: read-out: IC50, virus NL4-3; for IC90: read-out: IC90, virus NL4-3
[1] = Plasma stability in vitro assay; type: in vitro ADME; conditions: percent remaining after incubation for 60 min. at 37 °C, heparinized rat plasma
[2] = Microsomal stability in vitro assay; type: in vitro ADME; conditions: percent remaining after incubation for 60 min. at 37 °C, rat liver microsomes
[3] = Parallel artificial membrane permeation assay; conditions: for Papp at 100 μM: PAMPA, pH 7.2
[4] = biological target: HIV-1 reverse transcriptase (RT) (Human immunodeficiency virus type 1 group M subtype B, UniProt P04585); assay: RT biochemical assay; conditions: 10 nM HIV-1 RT, 37 °C, 1 h
[5] = read-out: MAGI-CCR5 IC50, HIV-1Ba-L in MAGI-CCR5 cells, 48 h
[6] = HIV-1Ba-L in MAGI-CCR5 cells, 48 h
[7] = Human immunodeficiency virus 1, MAGI-CCR5, 48 h, read-out: MAGI-CCR5 IC50, HIV-1Ba-L in MAGI-CCR5 cells, 48 h

For “3-Methyl-4-(2-(6-methyl-4-(1-methyl-1H-indol-2-yl)-2-oxo-1,2,3,4-tetrahydropyrimidin-5-yl)thiazol-4-yl)benzonitrile [1at]”, the IC50 (HIV-1Ba-L; [5]) was 0.39 ± 0.05 µM, the IC90 (HIV-1Ba-L; [6]) was 1.9 ± 0.3 µM and the “TC50 (A17 row)” value (MAGI-CCR5 cells) was >100 µM. The “TC50 (NL4-3 row)” value (MAGI-CCR5 cells) was >100 µM, the “MAGI-CCR5 TC50” value (MAGI-CCR5 cells) was >100 µM and the “PBMC TC50” value (PBMCs) was >100 ^d μM. For the same compound, the IC50 (HIV wildtype (NL4-3)) was 0.39 ± 0.05 µM and the IC90 (HIV wildtype (NL4-3)) was 4.8 ± 0.6 µM.
In the case of “4-(2-(6-Methyl-2-oxo-4-(pyridin-2-yl)-1,2,3,4-tetrahydropyrimidin-5-yl)thiazol-4-yl)benzonitrile [1x]”, the IC50 (HIV-1Ba-L; [5]) is reported as 2 ± 0.5 µM, the IC90 (HIV-1Ba-L; [6]) is reported as > 100 µM and the “MAGI-CCR5 TC50” value (MAGI-CCR5 cells) is reported as >100.00 µM. The “PBMC TC50” value (PBMCs) was >100.00 µM.
With “4-(2-(6-Methyl-2-oxo-4-(pyridin-3-yl)-1,2,3,4-tetrahydropyrimidin-5-yl)thiazol-4-yl)benzonitrile [1y]” the IC50 (HIV-1Ba-L; [5]) was 2.9 ± 0.1 µM, the IC90 (HIV-1Ba-L; [6]) was > 100 µM and the “MAGI-CCR5 TC50” value (MAGI-CCR5 cells) was >100.00 µM. For the same compound, the “PBMC TC50” value (PBMCs) was >100.00 µM, the “Plasma Stability (%)” value [1] was 89.42 ± 2.93% and the “Microsomal Stability (%)” value [2] was 75.55 ± 7.86%. For the same compound, the “PAMPA (LogPe)” value ([3]; polar brain lipid membrane, predicts BBB permeability) was −7.50 ± 0.10.
For “4-(2-(6-Methyl-2-oxo-4-(pyridin-4-yl)-1,2,3,4-tetrahydropyrimidin-5-yl)thiazol-4-yl)benzonitrile [1z]”, the IC50 (HIV-1Ba-L; [5]) was 1.4 ± 0.4 µM, the IC90 (HIV-1Ba-L; [6]) was > 100 µM and the “MAGI-CCR5 TC50” value (MAGI-CCR5 cells) was >100.00 µM. For the same compound, the “PBMC TC50” value (PBMCs) was >100.00 µM.
For “4-(2-(6-Methyl-2-oxo-4-(quinolin-2-yl)-1,2,3,4-tetrahydropyrimidin-5-yl)thiazol-4-yl)benzonitrile [1aa]”, the IC50 (HIV-1Ba-L; [5]) was 3.8 ± 1 µM, the IC90 (HIV-1Ba-L; [6]) was 98.3 ± 1.7 µM and the “MAGI-CCR5 TC50” value (MAGI-CCR5 cells) was >100.00 µM. For the same compound, the “PBMC TC50” value (PBMCs) was 68.3 ± 22.1 µM.
For “4-(2-(6-Methyl-2-oxo-4-(quinolin-4-yl)-1,2,3,4-tetrahydropyrimidin-5-yl)thiazol-4-yl)benzonitrile [1ab]”, the IC50 (HIV-1Ba-L; [5]) was 1.5 ± 0.3 µM, the IC90 (HIV-1Ba-L; [6]) was 12.7 ± 3.6 µM and the “MAGI-CCR5 TC50” value (MAGI-CCR5 cells) was >100.00 µM. The “PBMC TC50” value (PBMCs) was >100.00 µM.
In the case of `CC1=C(c2nc(-c3ccc(C#N)cc3)cs2)C(c2cc3ccccc3n2C)NC(=O)N1` (stereo not shown) [1ad, 4-(2-(6-Methyl-4-(1-methyl-1H-indol-2-yl)-2-oxo-1,2,3,4-tetrahydropyrimidin-5-yl)thiazol-4-yl)benzonitrile], the IC50 (HIV-1Ba-L; [7]) is reported as 0.74 µM, the “TC50 (A17 row)” value (MAGI-CCR5 cells) is reported as >100 µM and the “TC50 (NL4-3 row)” value (MAGI-CCR5 cells) is reported as >100 µM. For the same compound, the Papp at 100 μM [3] was 0.0891 ×10⁻⁶ cm/s.
With `CC1=C(c2nc(-c3ccc(C#N)cc3)cs2)C(c2ccc(F)nc2)NC(=O)N1` (stereo not shown) [1ae, 4-(2-(4-(6-Fluoropyridin-3-yl)-6-methyl-2-oxo-1,2,3,4-tetrahydropyrimidin-5-yl)thiazol-4-yl)benzonitrile] the “TC50 (NL4-3 row)” value (MAGI-CCR5 cells) was >100 µM and the Papp at 100 μM [3] was 0.575 ×10⁻⁶ cm/s.
Compound `CC1=C(c2nc(-c3ccc(C#N)cc3)cs2)C(c2ccc(Cl)nc2)NC(=O)N1` (stereo not shown) [1ai, 4-(2-(4-(6-Chloropyridin-3-yl)-6-methyl-2-oxo-1,2,3,4-tetrahydropyrimidin-5-yl)thiazol-4-yl)benzonitrile] has a Papp at 100 μM [3] of 0.0398 ×10⁻⁶ cm/s.
In the case of `CC1=C(c2nc(-c3ccc(C#N)cc3)cs2)C(c2ccc(Br)nc2)NC(=O)N1` (stereo not shown) [1am, 4-(2-(4-(6-Bromopyridin-3-yl)-6-methyl-2-oxo-1,2,3,4-tetrahydropyrimidin-5-yl)thiazol-4-yl)benzonitrile], the “TC50 (NL4-3 row)” value (MAGI-CCR5 cells) is reported as >100 µM and the Papp at 100 μM [3] is reported as 0.0151 ×10⁻⁶ cm/s.
With `COc1ccc(C2NC(=O)NC(C)=C2c2nc(-c3ccc(C#N)cc3)cs2)cn1` (stereo not shown) [1an, 4-(2-(4-(6-Methoxypyridin-3-yl)-6-methyl-2-oxo-1,2,3,4-tetrahydropyrimidin-5-yl)thiazol-4-yl)benzonitrile] the “TC50 (NL4-3 row)” value (MAGI-CCR5 cells) was >100 µM and the Papp at 100 μM [3] was 0.0562 ×10⁻⁶ cm/s.
With `CC1=C(c2nc(-c3ccc(C#N)cc3)cs2)C(c2ccc(C(F)(F)F)nc2)NC(=O)N1` (stereo not shown) [1ar, 4-(2-(6-Methyl-2-oxo-4-(6-(trifluoromethyl)pyridin-3-yl)-1,2,3,4-tetrahydropyrimidin-5-yl)thiazol-4-yl)benzonitrile] the “TC50 (NL4-3 row)” value (MAGI-CCR5 cells) was >100 µM.
For `COc1ccc(-c2csc(C3=C(C)NC(=O)NC3c3cccc(O)c3)n2)cc1` (stereo not shown) [1b], the “PBMC TC50” value (PBMCs) was 91 ^e μM.
In the case of `CC1=C(c2nc(-c3ccc(C#N)cc3)cs2)C(c2cccc(O)c2)NC(=O)N1` (stereo not shown) [1i, 4-(2-(4-(3-Hydroxyphenyl)-6-methyl-2-oxo-1,2,3,4-tetrahydropyrimidin-5-yl)thiazol-4-yl)benzonitrile], the “PBMC TC50” value (PBMCs) is reported as 84 ± 8.2 µM and the Papp at 100 μM [3] is reported as 0.0145 ×10⁻⁶ cm/s.
In the case of `CC1=C(c2nc(-c3ccc(C#N)cc3)cs2)C(c2ccc(O)cc2)NC(=O)N1` (stereo not shown) [1l, 4-(2-(4-(4-Hydroxyphenyl)-6-methyl-2-oxo-1,2,3,4-tetrahydropyrimidin-5-yl)thiazol-4-yl)benzonitrile], the “TC50 (NL4-3 row)” value (MAGI-CCR5 cells) is reported as 46 ± 6.1 µM and the Papp at 100 μM [3] is reported as 0.0151 ×10⁻⁶ cm/s.
In the case of `COc1ccc(C2NC(=O)NC(C)=C2c2nc(-c3ccc(C#N)cc3)cs2)cc1` (stereo not shown) [1m, 4-(2-(4-(4-Methoxyphenyl)-6-methyl-2-oxo-1,2,3,4-tetrahydropyrimidin-5-yl)thiazol-4-yl)benzonitrile], the IC50 (HIV-1Ba-L; [7]) is reported as < 0.15 µM, the “TC50 (NL4-3 row)” value (MAGI-CCR5 cells) is reported as 5.5 ± 1.0 µM and the Papp at 100 μM [3] is reported as 0.0776 ×10⁻⁶ cm/s.
In the case of `CC1=C(c2nc(-c3ccc(C#N)cc3)cs2)C(c2ccc(Oc3ccccc3)cc2)NC(=O)N1` (stereo not shown) [1p, 4-(2-(6-Methyl-2-oxo-4-(4-phenoxyphenyl)-1,2,3,4-tetrahydropyrimidin-5-yl)thiazol-4-yl)benzonitrile], the IC50 (HIV-1Ba-L; [7]) is reported as < 0.15 µM.
For `CC1=C(c2nc(-c3ccc(C#N)cc3)cs2)C(c2ccc(OCc3ccccc3)cc2)NC(=O)N1` (stereo not shown) [1q, 4-(2-(4-(4-(Benzyloxy)phenyl)-6-methyl-2-oxo-1,2,3,4-tetrahydropyrimidin-5-yl)thiazol-4-yl)benzonitrile], the IC50 (HIV-1Ba-L; [7]) was < 0.15 µM.
With `CC1=C(c2nc(-c3ccc(C#N)cc3)cs2)[C@@H](c2cccc(O)c2)NC(=O)N1` [(R)-1i] the “PBMC TC50” value (PBMCs) was >100 µM.
With `CC1=C(c2nc(-c3ccc(C#N)cc3)cs2)[C@H](c2cccc(O)c2)NC(=O)N1` [(S)-1i] the “PBMC TC50” value (PBMCs) was >100 µM and the “RT biochemical IC50 (μM) ± SD” value [4] was “Not active”.
With `Cc1ccnc2c1NC(=O)c1cccnc1N2C1CC1` [NVP, nevirapine, reference compound] the IC50 (HIV wildtype (NL4-3)) was 0.07 ± 0.03 µM and the IC90 (HIV wildtype (NL4-3)) was 0.6 ± 0.07 µM.
